Test results taken from ChEMBL document CHEMBL1137419, “Identification of potent 5-pyrimidinyl-2-aminothiazole CDK4, 6 inhibitors with significant selectivity over CDK1, 2, 5, 7, and 9” (Bioorg Med Chem Lett, 2006).

How the values were obtained:
[1] = target: T1, Cyclin-dependent kinase 4 (Homo sapiens, UniProt P11802); test: Inhibition of CDK4
[2] = target: Cyclin-dependent kinase 1 (Homo sapiens, UniProt P06493); test: Inhibition of CDK1
[3] = target: Cyclin-dependent kinase 2 (Homo sapiens, UniProt P24941); test: Inhibition of CDK2
[4] = target: Cyclin-dependent kinase 5 (Homo sapiens, UniProt Q00535); test: Inhibition of CDK5
[5] = target: Cyclin-dependent kinase 7 (Homo sapiens, UniProt P50613); test: Inhibition of CDK7
[6] = target: Cyclin-dependent kinase 9 (Homo sapiens, UniProt P50750); test: Inhibition of CDK9
EOL1 [7] = test: Cell cycle arrest in Eol1 cells by accumulation at G1 phase; type: functional, Homo sapiens
[8] = target: T1, Cyclin-dependent kinase 4; test: Inhibition of pRb phosphorylation at Ser780 residue by CDK4; type: functional; details: concentration not given here
[9] = target: Cyclin-dependent kinase 6 (Homo sapiens) (UniProt Q00534); test: Inhibition of pRb phosphorylation at Ser780 residue by CDK6; type: functional; details: concentration not given here
EOL1 [10] = test: Inhibition of pRb phosphorylation in Eol1 xenografted in nude rat at 510 nM, iv after 24 hrs; type: functional, Homo sapiens
EOL1 [11] = test: Inhibition of BrdU incorporation in Eol1 xenografted in nude rat at 510 nM, iv after 24 hrs; type: functional, Homo sapiens

Sequence of Cyclin-dependent kinase 7 (P50613 whole entry): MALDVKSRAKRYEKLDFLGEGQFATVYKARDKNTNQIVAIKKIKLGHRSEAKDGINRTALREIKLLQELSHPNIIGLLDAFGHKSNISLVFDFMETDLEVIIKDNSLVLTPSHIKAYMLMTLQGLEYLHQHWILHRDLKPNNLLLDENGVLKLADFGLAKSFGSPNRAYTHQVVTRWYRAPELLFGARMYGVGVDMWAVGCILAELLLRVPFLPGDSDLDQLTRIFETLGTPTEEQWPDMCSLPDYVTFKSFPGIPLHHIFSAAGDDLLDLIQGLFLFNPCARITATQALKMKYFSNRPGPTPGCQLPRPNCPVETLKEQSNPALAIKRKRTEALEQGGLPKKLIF
Sequence of Cyclin-dependent kinase 9 (P50750 whole entry): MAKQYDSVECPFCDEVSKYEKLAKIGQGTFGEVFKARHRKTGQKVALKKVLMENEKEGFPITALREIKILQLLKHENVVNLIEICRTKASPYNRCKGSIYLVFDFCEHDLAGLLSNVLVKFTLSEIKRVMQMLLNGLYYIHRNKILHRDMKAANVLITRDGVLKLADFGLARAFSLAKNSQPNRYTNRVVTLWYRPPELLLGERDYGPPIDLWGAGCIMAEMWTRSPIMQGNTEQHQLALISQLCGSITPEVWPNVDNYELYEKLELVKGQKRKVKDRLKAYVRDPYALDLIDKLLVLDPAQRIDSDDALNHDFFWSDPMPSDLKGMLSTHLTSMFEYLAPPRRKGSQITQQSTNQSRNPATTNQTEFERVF
T1 sequence (P11802 whole entry): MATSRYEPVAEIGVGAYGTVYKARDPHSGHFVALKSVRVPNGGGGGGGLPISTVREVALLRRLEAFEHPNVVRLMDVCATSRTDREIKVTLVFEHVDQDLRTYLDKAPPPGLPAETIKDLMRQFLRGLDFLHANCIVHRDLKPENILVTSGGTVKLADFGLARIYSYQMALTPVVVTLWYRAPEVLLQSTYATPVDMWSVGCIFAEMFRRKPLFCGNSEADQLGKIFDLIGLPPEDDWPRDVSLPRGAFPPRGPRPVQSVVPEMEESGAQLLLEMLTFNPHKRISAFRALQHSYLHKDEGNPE
Sequence of Cyclin-dependent kinase 5 (Q00535 whole entry): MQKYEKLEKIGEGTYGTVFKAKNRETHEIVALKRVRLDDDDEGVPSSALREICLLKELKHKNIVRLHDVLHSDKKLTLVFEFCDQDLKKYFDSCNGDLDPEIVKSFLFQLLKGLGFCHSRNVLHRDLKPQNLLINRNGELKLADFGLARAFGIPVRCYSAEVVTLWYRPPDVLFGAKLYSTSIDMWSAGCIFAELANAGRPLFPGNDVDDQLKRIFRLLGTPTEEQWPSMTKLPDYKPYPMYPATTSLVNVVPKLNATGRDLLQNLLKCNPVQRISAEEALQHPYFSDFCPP
Sequence of Cyclin-dependent kinase 1 (P06493 whole entry): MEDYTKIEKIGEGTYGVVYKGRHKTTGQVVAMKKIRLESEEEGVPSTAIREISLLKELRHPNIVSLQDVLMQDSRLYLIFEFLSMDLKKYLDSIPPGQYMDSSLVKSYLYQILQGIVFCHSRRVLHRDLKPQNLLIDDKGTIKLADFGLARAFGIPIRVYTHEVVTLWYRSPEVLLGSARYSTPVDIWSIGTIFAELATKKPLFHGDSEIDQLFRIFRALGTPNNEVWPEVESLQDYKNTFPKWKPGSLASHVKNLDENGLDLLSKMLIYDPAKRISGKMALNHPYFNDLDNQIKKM
Sequence of Cyclin-dependent kinase 6 (Homo sapiens) (Q00534 whole entry): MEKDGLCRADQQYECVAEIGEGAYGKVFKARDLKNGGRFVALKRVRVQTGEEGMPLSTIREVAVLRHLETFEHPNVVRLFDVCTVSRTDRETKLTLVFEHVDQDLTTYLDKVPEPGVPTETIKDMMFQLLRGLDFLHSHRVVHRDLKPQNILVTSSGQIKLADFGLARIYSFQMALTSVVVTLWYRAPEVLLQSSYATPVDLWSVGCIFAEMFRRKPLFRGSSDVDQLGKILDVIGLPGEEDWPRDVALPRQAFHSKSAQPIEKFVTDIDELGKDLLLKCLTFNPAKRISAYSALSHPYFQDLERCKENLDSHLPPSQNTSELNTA

IC50 [1] [nM]	IC50 [2] [nM]	IC50 [3] [nM]	IC50 [4] [nM]	IC50 [5] [nM]	IC50 [6] [nM]	inhibition [8] [%]	inhibition [9] [%]	SMILES	Activity (EOL1 [7]) [%]	Inhibition (EOL1 [10]) [%]	Inhibition (EOL1 [11]) [%]
13	> 1000	270	> 10000	190	26			Cc1cnc(OC2CCCCC2)nc1-c1cnc(Nc2ccccn2)s1			
			3000			> 80	> 80	Cc1cc(-c2cnc(Nc3cnc(CN4CCN(C)CC4)cn3)s2)nc(OC2CCCCC2)n1	90	99	91
4.2	24	14	34	20	2.5			c1ccc(Nc2ncc(-c3ccnc(OC4CCCCC4)n3)s2)nc1			
34	> 10000	> 10000	> 10000	> 10000	> 10000			Cc1cc(-c2cnc(Nc3ccccn3)s2)nc(OC2CCCCC2)n1			
